Source: publication PMC12371494, “Discovery of YTHDF2 Ligands by Fragment-Based Design” (ACS Bio & Med Chem Au, 2025)
Where two headings read alike, the source gives them in different places.

Molecular target: T1, GST-YTHDF2 (Homo sapiens, UniProt Q9Y5A9)
T1 construct: made in house
T1 sequence (Q9Y5A9 1-579): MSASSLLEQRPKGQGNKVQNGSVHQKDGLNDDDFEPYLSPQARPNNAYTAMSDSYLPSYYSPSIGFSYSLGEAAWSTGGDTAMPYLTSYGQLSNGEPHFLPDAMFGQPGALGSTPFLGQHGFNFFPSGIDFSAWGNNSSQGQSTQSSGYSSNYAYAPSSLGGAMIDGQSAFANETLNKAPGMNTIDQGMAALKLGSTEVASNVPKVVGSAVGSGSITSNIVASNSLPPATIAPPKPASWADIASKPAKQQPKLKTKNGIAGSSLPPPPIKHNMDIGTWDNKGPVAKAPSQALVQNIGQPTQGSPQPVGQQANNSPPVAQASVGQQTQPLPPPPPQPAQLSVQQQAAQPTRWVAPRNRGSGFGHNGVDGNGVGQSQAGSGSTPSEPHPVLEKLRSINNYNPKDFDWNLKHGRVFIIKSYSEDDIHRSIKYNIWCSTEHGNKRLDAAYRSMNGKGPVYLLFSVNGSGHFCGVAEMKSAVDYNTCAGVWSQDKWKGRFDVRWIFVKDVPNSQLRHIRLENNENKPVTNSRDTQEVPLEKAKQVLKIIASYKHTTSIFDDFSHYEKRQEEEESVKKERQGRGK
Test: HTRF-based binding assay, competition with m6A-oligoRNA, DF2
Details: for Residual signal at 1 mM concentration: HTRF, 1 mM compound, relative to control, average of two technical replicates, * = interference with the assay; for LE (ligand efficiency, DF2): LE = -RT ln IC50/HAC from HTRF IC50

[1] = dose-response, competitor m6A-oligoRNA, read-out: DF2 IC50 (HTRF assay)

Row | SMILES | Residual signal at 1 mM concentration | IC50 | LE (ligand efficiency, DF2) | IC50 [1]
1 | CC(=O)Nc1nnc(C=Cc2cccc([N+](=O)[O-])c2)s1 (mixture of isomers) [Compound S17] | 77% | – | – | –
2 | CC=CC=C1C(=O)NC(=S)NC1=O [Compound 1] | 26% | 19 µM | 0.50 kcal/(mol HAC) | –
3 | Cc1ccccc1NN=C1C(=O)NC(=S)NC1=O [Compound 2] | 12% | 170 µM | 0.29 kcal/(mol HAC) | –
4 | CNc1cc(=O)[nH]c(=O)[nH]1 [Compound 4] | 18% | – | 0.49 kcal/(mol HAC) | 250 µM
5 | CNc1ncccc1C(N)=O [Compound 5] | 88% | – | – | –
6 | Cc1[nH]nc2ncnc(N)c12 [Compound 6] | 80% | – | – | –
7 | CN(C)c1ccc(C=C2C(=O)NC(=S)NC2=O)cc1 [Compound 7] | – | 21 µM | 0.34 kcal/(mol HAC) | –
8 | O=C1NC(=S)NC(=O)C1=NNc1cccc(C(=O)O)c1 [Compound 8] | 5% | 6 µM | 0.36 kcal/(mol HAC) | –
9 | Cc1cccc(NC=C2C(=O)NC(=S)NC2=O)n1 [Compound 9] | – | 30 µM | 0.34 kcal/(mol HAC) | –
10 | COc1ccc(C=C2C(=O)NC(=S)NC2=O)cc1C [Compound 10] | 48% | 28 µM | 0.33 kcal/(mol HAC) | –
11 | CC=CC=C1C(=O)NC(=O)NC1=O [Compound 11] | 30% | 29 µM | 0.48 kcal/(mol HAC) | –
12 | COc1ccc(NC=C2C(=O)NC(=O)NC2=O)cc1 [Compound 12] | – | 40 µM | 0.32 kcal/(mol HAC) | –
13 | O=c1cn[nH]c(=S)[nH]1 [Compound 13] | 5% | – | 0.73 kcal/(mol HAC) | 53 µM
14 | O=c1[nH]c(=S)[nH]c2n[nH]cc12 [Compound 15] | 17% | – | 0.51 kcal/(mol HAC) | 86 µM
15 | O=c1[nH]c(=S)[nH]c2nc[nH]c12 [Compound 16] | 2% | – | 0.56 kcal/(mol HAC) | 30 µM
16 | Cc1cc(=O)c(OCc2ccc(F)cc2)c[nH]1 [Compound S1] | 31% | – | – | 310 µM
17 | Cc1cc(O)c(OCC(=O)N=c2[nH]cc(C)s2)cn1 [Compound S6] | 60% | – | – | –
18 | CCSc1nnc(NC(C)=O)s1 [Compound S7] | 60% | – | – | –
19 | Cc1nc(O)c(C=Nc2ccc(Cl)cc2)c(O)n1 [Compound S8] | 21% | – | – | –
20 | CC(=O)N=c1[nH]nc(SCC(=O)NC2CCCCC2)s1 [Compound S10] | 50% | – | – | –
21 | COc1cc2[nH]c(=O)[nH]c(=O)c2cc1OC [Compound S12] | 60% | – | – | –

Row | SMILES | Residual signal at 1 mM concentration | IC50 | LE (ligand efficiency, DF2) | IC50 [1]
22 | Cc1cc(O)c2[nH]ncc2n1 [Compound S13] | 62% | – | – | –
23 | COC(=O)CNC(=O)COc1c[nH]c(C)cc1=O [Compound S15] | 75% | – | – | –
24 | C=CCc1cccc(C=Nc2c[nH]c(=O)[nH]c2=O)c1O [Compound S18] | 79% | – | – | –
25 | CN(C)c1cc(=O)[nH]c(=O)[nH]1 [Compound S19] | 85% | – | – | –
26 | O=C(Nc1nccs1)C(F)(F)F [Compound S20] | 87% | – | – | –
27 | Oc1ccnc(OC(F)F)c1 [Compound S21] | 87% | – | – | –
28 | Cc1cc(=O)c2sccc2[nH]1 [Compound S22] | 89% | – | – | –
29 | OCCNc1ccc(Cl)nn1 [Compound S23] | > 90% | – | – | –
30 | O=C(Nc1nnc[nH]1)C1CC1 [Compound S24] | > 90% | – | – | –
31 | CC(O)c1nc2cc(-c3cc(F)cc(Cl)c3)ccc2[nH]1 (centres unmarked) [Compound S25] | > 90% | – | – | –
32 | CCCc1nnc(NC(C)=O)s1 [Compound S26] | > 90% | – | – | –
33 | Cc1nc(O)c2sccc2n1 [Compound S27] | > 90% | – | – | –
34 | CCOC(=O)c1noc(C)n1 [Compound S28] | > 90% | – | – | –
35 | COc1cnc(Br)cc1O [Compound S29] | > 90% | – | – | –
36 | COc1cccc(-c2ccc3c(N)n[nH]c3n2)c1 [Compound S30] | > 90% | – | – | –
37 | FC(F)(F)c1cc(-c2ccc3ccccc3c2)n[nH]1 [Compound S31] | > 90% | – | – | –
38 | Cc1nnc(N)n(N)c1=O [Compound S32] | > 90% | – | – | –
39 | O=c1cc(O)cc(C(F)(F)F)[nH]1 [Compound S33] | > 90% | – | – | –
40 | CCc1cc(NC(=O)c2ccc(C)nc2)[nH]n1 [Compound S34] | > 90% | – | – | –
41 | Cc1n[nH]c(N)c1C#N [Compound S36] | > 90% | – | – | –
42 | N#Cc1c(C2CC2)n[nH]c1N [Compound S37] | > 90% | – | – | –

Row | SMILES | Residual signal at 1 mM concentration | IC50 | LE (ligand efficiency, DF2) | IC50 [1]
43 | NC(=O)c1cccnc1NCC1CC1 [Compound S39] | > 90% | – | – | –
44 | NCCC1C(=O)NC(=S)NC1=O [Compound S42] | – | – | – | 330 µM
45 | CC1(C)C(=O)NC(=S)NC1=O [Compound S43] | 11% | – | – | –
46 | O=C1CC(=O)NC(=S)N1 [Compound S44] | 79% | – | – | –
47 | CN1C(=O)CC(=O)NC1=S [Compound S45] | 75% | – | – | –
48 | Cn1cccc1C=C1C(=O)NC(=S)NC1=O [Compound S46] | 13% | – | – | –
49 | CNC=C1C(=O)NC(=S)NC1=O [Compound S47] | – | – | – | 91 µM
50 | CN(NC=C1C(=O)NC(=S)NC1=O)c1ccccc1 [Compound S49] | 54% | – | – | –
51 | Cc1cc(O)nc(NC=C2C(=O)NC(=S)NC2=O)n1 [Compound S50] | 9% | – | – | 57 µM
52 | CN(C)c1ccc(C=C2C(=O)NC(=S)NC2=O)o1 [Compound S51] | 35% | – | – | –
53 | CCOc1ccc(C=C2C(=O)NC(=S)NC2=O)cc1Cl [Compound S52] | 12% | – | 0.29 kcal/(mol HAC) | 55 µM
54 | Cc1n[nH]c(=S)[nH]c1=O [Compound S53] | 38% | – | – | –
55 | O=C(CCc1n[nH]c(=S)[nH]c1=O)Nc1ccccc1 [Compound S55] | – | – | – | 190 µM
56 | CCNc1cc(=O)[nH]c(=O)[nH]1 [Compound S56] | 51% | – | – | –
57 | CNc1ncnc2[nH]nc(C)c12 [Compound S57] | 88% | – | – | –
58 | O=c1[nH]c(=O)c2cn[nH]c2[nH]1 [Compound S58] | 47% | – | – | –
59 | O=c1[nH]c(=S)[nH]c2sc3c(c12)CCC3 [Compound S59] | 35% | – | – | 53 µM
60 | CC1CCc2c(sc3[nH]c(=S)[nH]c(=O)c23)C1 (centres unmarked) [Compound S60] | 24% | – | – | 80 µM
61 | O=c1[nH]c(=O)c2ccsc2[nH]1 [Compound S61] | – | – | – | 290 µM
62 | O=c1[nH]c(=S)[nH]c2cnccc12 [Compound S62] | – | – | – | 170 µM
